This is an account of results in PubChem BioAssay (NCI).

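Growth conditions: 96-well plates. Treatment: test compound, 48 hours, 5 concentrations. Analysis: linear interpolation between bracketing concentrations; unreached endpoints set to highest concentration. TGI marks complete inhibition of growth.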 Some results are limits rather than exact numbers.

Test systems include BT-549 breast; COLO 205 colon; HCT-15 colon; HOP-62 NSCLC; HT29 colon; MDA-MB-435; MOLT-4 leukemia; NCI-H522 lung; OVCAR-8 ovarian; SK-MEL-28 melanoma; SK-MEL-5 melanoma; SK-OV-3 ovarian; SNB-19 CNS; SR leukemia; SW-620 colon; UACC-257 melanoma; UACC-62 melanoma; LOX IMVI melanoma; TK-10 renal.
Assay in all cases: NCI-60 cell line screen, 48 h

In the case of `CC(=O)Nc1ccc(NC(=O)c2c(Cl)c(Cl)c(Cl)c(Cl)c2-c2nc3ccccc3[nH]2)cc1`, the TGI in the experiment on BT-549 breast is over 100 µM; in the experiment on COLO 205 colon it was 39.8 µM; in the experiment with HCT-15 colon, over 100 µM; in the experiment on HOP-62 NSCLC, over 100 µM; in the experiment on HT29 colon it was over 100 µM; in the experiment on MDA-MB-435, over 100 µM. Also, the TGI in the experiment with MOLT-4 leukemia is 98.7 µM; in the experiment on NCI-H522 lung, over 100 µM; in the experiment on OVCAR-8 ovarian it was over 100 µM; in the experiment with SK-MEL-28 melanoma, over 100 µM; in the experiment on SK-MEL-5 melanoma, over 100 µM; in the experiment on SK-OV-3 ovarian, over 100 µM. Moreover, the TGI in the experiment on SNB-19 CNS, with SR leukemia, with SW-620 colon, in the experiment on UACC-257 melanoma and with UACC-62 melanoma was over 100 µM throughout.
As to `Cc1ccc(NN=NCCCCN)cc1`, the TGI in the experiment with BT-549 breast, with COLO 205 colon, with HCT-15 colon, with HOP-62 NSCLC, in the experiment on HT29 colon and in the experiment on LOX IMVI melanoma was over 100 µM each time. The TGI in the experiment with MDA-MB-435, with MOLT-4 leukemia, with NCI-H522 lung, in the experiment on OVCAR-8 ovarian, in the experiment on SK-MEL-5 melanoma and in the experiment on SK-OV-3 ovarian was over 100 µM each time. The TGI with SNB-19 CNS, in the experiment with SR leukemia, in the experiment on SW-620 colon, with TK-10 renal, in the experiment with UACC-257 melanoma and with UACC-62 melanoma was over 100 µM in each case.
As for `CCOP(=O)(CCCC(O)CNc1cc(Cl)nc(N)n1)OCC` (stereo not given), the TGI in the experiment on BT-549 breast, in the experiment with COLO 205 colon, in the experiment on HCT-15 colon, with HOP-62 NSCLC, with HT29 colon and in the experiment on LOX IMVI melanoma was over 100 µM each time. Besides, the TGI with MDA-MB-435, in the experiment with MOLT-4 leukemia, in the experiment with NCI-H522 lung, with OVCAR-8 ovarian, in the experiment on SK-MEL-28 melanoma and in the experiment with SK-MEL-5 melanoma was over 100 µM each time. Besides, the TGI in the experiment with SK-OV-3 ovarian, in the experiment on SR leukemia, in the experiment on SW-620 colon, with TK-10 renal, in the experiment with UACC-257 melanoma and with UACC-62 melanoma was over 100 µM throughout.
`CC(C)(C)c1cc(-c2cc(C(C)(C)C)n(-c3ccccc3)n2)nn1-c1ccccc1`: the TGI in the experiment on BT-549 breast, in the experiment with COLO 205 colon, with HCT-15 colon, in the experiment on HOP-62 NSCLC, in the experiment with HT29 colon and in the experiment on LOX IMVI melanoma was over 100 µM throughout. For the same molecule, the TGI with MDA-MB-435, with MOLT-4 leukemia, in the experiment with NCI-H522 lung, with OVCAR-8 ovarian, in the experiment on SK-MEL-28 melanoma and with SK-MEL-5 melanoma was over 100 µM in each case. For the same molecule, the TGI with SK-OV-3 ovarian, in the experiment on SR leukemia, with SW-620 colon, in the experiment on TK-10 renal, with UACC-257 melanoma and with UACC-62 melanoma was over 100 µM throughout.
With `CC(C)(C)c1cc(C2NCCO2)cc(C(C)(C)C)c1O` (stereo not given), the TGI with BT-549 breast, in the experiment with COLO 205 colon, in the experiment on HCT-15 colon, in the experiment on HOP-62 NSCLC, with HT29 colon and in the experiment with LOX IMVI melanoma was over 100 µM in each case. The TGI in the experiment with MDA-MB-435, with MOLT-4 leukemia, in the experiment on NCI-H522 lung, in the experiment on OVCAR-8 ovarian, in the experiment with SK-MEL-28 melanoma and with SK-MEL-5 melanoma was over 100 µM in each case. Moreover, the TGI in the experiment on SK-OV-3 ovarian, with SR leukemia, in the experiment with SW-620 colon, with TK-10 renal, in the experiment on UACC-257 melanoma and in the experiment on UACC-62 melanoma was over 100 µM throughout.
Regarding `CC(=O)O[C@H]1C(=O)[C@@]2(C)[C@H]([C@H](OC(=O)c3cccc(C(F)(F)F)c3)[C@]3(O)C[C@H](OC(=O)[C@H](O)[C@@H](NC(=O)c4ccccc4)c4ccccc4)C(C)=C1C3(C)C)[C@]1(OC(C)=O)CO[C@@H]1C[C@@H]2O`, the TGI is over 15.5 µM with BT-549 breast; 3.27 µM in the experiment with COLO 205 colon; over 25 µM in the experiment on HCT-15 colon; over 14.2 µM with HOP-62 NSCLC; 3.84 µM in the experiment on HT29 colon; under 0.0025 µM in the experiment with MDA-MB-435. Besides, the TGI with MOLT-4 leukemia is 3.57 µM; in the experiment with NCI-H522 lung, 0.0175 µM; with OVCAR-8 ovarian, 7.61 µM; with SK-MEL-28 melanoma, over 25 µM; with SK-MEL-5 melanoma, 4.33 µM; in the experiment on SK-OV-3 ovarian, over 25 µM. Moreover, the TGI in the experiment with SNB-19 CNS is over 25 µM; in the experiment with SR leukemia, 3.72 µM; with SW-620 colon it was over 16.4 µM; in the experiment on TK-10 renal it was 8.88 µM; with UACC-257 melanoma, 8.27 µM; with UACC-62 melanoma, 8 µM.
`Oc1cc(Br)cc2cccnc12`: the TGI in the experiment on BT-549 breast is 98 µM; with COLO 205 colon it was 34.8 µM; in the experiment with HCT-15 colon, over 100 µM; in the experiment with HOP-62 NSCLC, 81.9 µM; in the experiment with HT29 colon it was 35 µM; with MDA-MB-435, over 60 µM. The TGI with MOLT-4 leukemia is 9.84 µM; in the experiment with NCI-H522 lung, 7.57 µM; in the experiment with OVCAR-8 ovarian, over 35.4 µM; with SK-MEL-28 melanoma, over 100 µM; with SK-MEL-5 melanoma, 15.1 µM; in the experiment with SK-OV-3 ovarian, 79.9 µM. The TGI in the experiment on SNB-19 CNS was over 100 µM; in the experiment with SR leukemia, 5.92 µM; in the experiment on SW-620 colon, 16.9 µM; with TK-10 renal it was over 100 µM; with UACC-257 melanoma it was 6.93 µM; in the experiment with UACC-62 melanoma it was 7.81 µM.
